Type in all cases: cell-based
For experiment [1], the target named is T1, mouse NLRP3 (Mus musculus, UniProt Q8R4B8).
T1 construct: Blood was drawn from female CD1 mice (9 to 10 weeks) by cardiac puncture; from tissue; host or cells: whole blood of female CD1 mice, LPS-primed, ATP-stimulated
Description: Mouse Whole Blood (mWB) NLRP3 Assay (IL-1β MSD). The note with it: CD1 mouse whole blood, LPS 1 μg/mL 5 h, ATP 5 mM; class symbols. Here is the method: Reagents: The following reagents were used: blood collection tubes (Heparin); U-bottom 96-well tissue culture (Falcon 353077); HBSS for LPS, ATP and compound dilutions (Gibco 24020-117); and LPS, E. coli serotype 026:B6 (Sigma L-2654).
Mouse IL-1b MSD assay: Blood was drawn from female CD1 mice (9 to 10 weeks) by cardiac puncture. Blood was plated (135 μL) per well in 96-well U-bottom plates. 7.5 μL of 20× LPS (20 μg/mL, final concentration of 1 μg/mL) was added and mixed by gentle pipetting, and the mixture was incubated in a TC incubator for five hours. 7.5 μL of 20× compound or vehicle per well was added and mixed by gentle pipetting. Compounds were diluted 1/50 in HBSS to prepare a 20× dilution curve in 2% DMSO. The mixture was incubated for 30 minutes in a TC incubator with shaking (450 rpm). 5 μl of 31× ATP (155 mM, final concentration of 5 mM) was added and mixed by gentle pipetting. The mixture was incubated in a TC incubator for 30 minutes with shaking (450 rpm). The plate was centrifuged for 10 minutes at 800×g and ˜70 μL of plasma was removed. Plasma was frozen if required. Mouse IL-1b was analyzed with IL-1b MSD assay (K152TUK). […]
mWB IL-1β Assay: A represents an IC50 value <0.3 μM; B represents an IC50 value ≥0.3 μM and <0.5 μM; C represents an IC50 value ≥0.5 μM and <1.0 μM; D represents an IC50 value ≥1.0 μM.

For experiment [2], the target named is T2, human NLRP3 (Homo sapiens, UniProt Q96P20). Description: Human Whole Blood (hWB) NLRP3 Assay (IL-1β MSD). Particulars: LPS 1 μg/ml 4.5 h, ATP 30 min, class symbols. How it is done:
Human whole blood was drawn from healthy volunteers after obtaining written informed consent. Heparin lithium coated tubes were used to collect blood from volunteers. Blood samples were distributed on 96 well plates using 90 μl per well. Priming was performed by adding 5 μl of LPS (O26:B6; Sigma L-2654) at a final concentration of 1 μg/ml for 4.5 hours in a humidified incubator with 37° C., 5% CO2. Thirty minutes prior to NLRP3 activation, 5 μl of a 20× compound solution or vehicle (2% DMSO) was added to each well and plates were incubated on a shaker (450 rpm) in a humidified incubator with 37° C., 5% CO2. Activation was then performed by adding 3.3 μl of a 31× ATP solution per well. At the end of the 30 minutes stimulation, the plates were centrifuged (800 g, 10 min, room temperature) and the plasma from each well was frozen at −80° C. IL-1β levels in the supernatant were analyzed using a mesoscale discovery assay (MSD K151TUK) according to the manufacturers' instructions.
hWB IL-1β Assay: A represents an IC50 value <0.3 μM; B represents an IC50 value ≥0.3 μM and <0.5 μM; C represents an IC50 value ≥0.5 μM and <1.0 μM; D represents an IC50 value >1.0 μM.

Experiment [3] has as its target T2, human NLRP3. The experiment can be described thus: Human PBMC NLRP3 Assay (IL-1β release). Set-up: Human PBMCs (Normal): iXCells Cat #10HU-003; host or cells: human PBMCs (normal donors), LPS-primed, nigericin-stimulated. The note with it: human PBMCs. How it is done: Reagents: Human PBMCs (Normal): iXCells Cat #10HU-003; RPMI 1640 medium (ATCC modification): ThermoFisher Cat #A1049101 (Complete Media: 10% FBS, 1% Pen/Strep; Assay Media: 1% Pen/Strep; 75 cm^2 cell culture flask: Corning Cat #430641U; 96-well cell culture plates: VWR Cat #10062-900; LPS (E. coli 026:B6): Sigma Cat #L2654, stock 5 mg/mL in PBS; Nigericin sodium salt: Sigma Cat #N7143, stock 5 mg/mL (6.7 mM) in ethanol.
Cryopreserved PBMCs (10×10^6 cells/vial) were rapidly thawed in a 37° C. water bath for 2 min and transferred in 10 mL Complete Media. Cells were then centrifuged at 1200 RPM for 5 min, resuspended in 40 mL of Complete Media, transferred in a 75 cm^2 cell culture flask and incubated overnight at 37° C. with 5% CO2. The next day, PBMCs were centrifuged, resuspended in 30 mL Assay Media (˜3.3×10^5 cells/mL) and distributed at 100 μL/well in a 96-well cell culture plate. 50 μl of Assay Media containing 300 ng/ml of LPS was then added to each well except for the untreated control wells (50 μl Assay Media without LPS). Cells were then primed with LPS for 4 h at 37° C. with 5% CO2. A concentration response curve (CRC) was prepared of 500× test compound in 100% dimethyl sulfoxide (DMSO). The CRC was then diluted 1:25 in Assay Media and then further diluted 1:5 in Assay Media resulting in a final 4× CRC in 0.8% DMSO/Assay Media. 50 μL/well of 4× test compound CRC or vehicle (0.8% DMSO/Assay Media) was then transferred into each well and subsequently incubated for 30 min at 37° C. with 5% CO2. Cells were stimulated by adding 4 μL of 500 μM Nigericin, for 1 h at 37° C. with 5% CO2 Plates were then centrifuged at 1200 RPM for 5 min and 100 μl of the media was transferred to a clean 96-well storage plate and stored at −80° C. until analyzed. Cytokine measurements were performed using the mesoscale platform. Compounds were added 30 minutes before priming the cells with LPS when TNFα was required to be quantified in the cytokine panel to confirm selectivity.
Human PBMC NLRP3 Assay: A represents an IC50 value <0.3 μM; B represents an IC50 value ≥0.3 μM and <0.5 μM; C represents an IC50 value ≥0.5 μM and <1.0 μM; D represents an IC50 value >1.0 μM and <10 μM; E represents an IC50 value >10 μM.

The mark [4] stands for this setting: LPS priming 4 h, nigericin stimulation 1 h, class symbols.
Setting [5] is: LPS priming, nigericin stimulation, numeric values of Tables C1-C4.

pIC50: −log10 of the molar value. Some results are limits rather than exact numbers.

The values that follow come from patent US20240368131A1, “OXOINDOLINYL AMIDE DERIVATIVES FOR INHIBITING NLRP3 AND USES THEREOF” (VENTUS THERAPEUTICS U.S. INC., priority 2022, published 2024).

T1 sequence (Q8R4B8 whole entry): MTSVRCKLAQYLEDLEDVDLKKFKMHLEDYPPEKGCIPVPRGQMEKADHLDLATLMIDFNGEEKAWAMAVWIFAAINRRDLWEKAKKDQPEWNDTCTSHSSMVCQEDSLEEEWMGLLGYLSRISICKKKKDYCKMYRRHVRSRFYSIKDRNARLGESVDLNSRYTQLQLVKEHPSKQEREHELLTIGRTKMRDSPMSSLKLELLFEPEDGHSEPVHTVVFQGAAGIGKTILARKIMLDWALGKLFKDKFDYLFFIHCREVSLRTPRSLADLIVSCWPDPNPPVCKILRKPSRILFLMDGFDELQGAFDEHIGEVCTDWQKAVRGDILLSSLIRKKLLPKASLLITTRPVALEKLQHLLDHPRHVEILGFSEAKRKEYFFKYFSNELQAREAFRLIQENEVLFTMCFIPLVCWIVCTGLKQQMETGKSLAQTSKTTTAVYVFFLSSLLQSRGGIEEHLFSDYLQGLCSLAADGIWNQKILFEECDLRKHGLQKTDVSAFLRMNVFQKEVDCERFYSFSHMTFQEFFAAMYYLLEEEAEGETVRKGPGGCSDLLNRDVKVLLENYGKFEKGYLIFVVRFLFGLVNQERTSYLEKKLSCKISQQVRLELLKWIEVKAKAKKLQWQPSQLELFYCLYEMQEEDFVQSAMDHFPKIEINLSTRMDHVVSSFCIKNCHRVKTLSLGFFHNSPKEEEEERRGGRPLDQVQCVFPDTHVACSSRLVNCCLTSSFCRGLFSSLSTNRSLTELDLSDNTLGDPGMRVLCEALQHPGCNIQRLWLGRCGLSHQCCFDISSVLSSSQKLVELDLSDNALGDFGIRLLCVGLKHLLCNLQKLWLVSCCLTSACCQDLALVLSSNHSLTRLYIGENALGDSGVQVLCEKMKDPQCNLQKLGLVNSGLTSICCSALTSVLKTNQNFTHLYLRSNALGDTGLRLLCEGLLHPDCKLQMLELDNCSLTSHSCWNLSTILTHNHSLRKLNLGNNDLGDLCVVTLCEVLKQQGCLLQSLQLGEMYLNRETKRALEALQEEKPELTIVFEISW
T2 sequence (Q96P20 whole entry): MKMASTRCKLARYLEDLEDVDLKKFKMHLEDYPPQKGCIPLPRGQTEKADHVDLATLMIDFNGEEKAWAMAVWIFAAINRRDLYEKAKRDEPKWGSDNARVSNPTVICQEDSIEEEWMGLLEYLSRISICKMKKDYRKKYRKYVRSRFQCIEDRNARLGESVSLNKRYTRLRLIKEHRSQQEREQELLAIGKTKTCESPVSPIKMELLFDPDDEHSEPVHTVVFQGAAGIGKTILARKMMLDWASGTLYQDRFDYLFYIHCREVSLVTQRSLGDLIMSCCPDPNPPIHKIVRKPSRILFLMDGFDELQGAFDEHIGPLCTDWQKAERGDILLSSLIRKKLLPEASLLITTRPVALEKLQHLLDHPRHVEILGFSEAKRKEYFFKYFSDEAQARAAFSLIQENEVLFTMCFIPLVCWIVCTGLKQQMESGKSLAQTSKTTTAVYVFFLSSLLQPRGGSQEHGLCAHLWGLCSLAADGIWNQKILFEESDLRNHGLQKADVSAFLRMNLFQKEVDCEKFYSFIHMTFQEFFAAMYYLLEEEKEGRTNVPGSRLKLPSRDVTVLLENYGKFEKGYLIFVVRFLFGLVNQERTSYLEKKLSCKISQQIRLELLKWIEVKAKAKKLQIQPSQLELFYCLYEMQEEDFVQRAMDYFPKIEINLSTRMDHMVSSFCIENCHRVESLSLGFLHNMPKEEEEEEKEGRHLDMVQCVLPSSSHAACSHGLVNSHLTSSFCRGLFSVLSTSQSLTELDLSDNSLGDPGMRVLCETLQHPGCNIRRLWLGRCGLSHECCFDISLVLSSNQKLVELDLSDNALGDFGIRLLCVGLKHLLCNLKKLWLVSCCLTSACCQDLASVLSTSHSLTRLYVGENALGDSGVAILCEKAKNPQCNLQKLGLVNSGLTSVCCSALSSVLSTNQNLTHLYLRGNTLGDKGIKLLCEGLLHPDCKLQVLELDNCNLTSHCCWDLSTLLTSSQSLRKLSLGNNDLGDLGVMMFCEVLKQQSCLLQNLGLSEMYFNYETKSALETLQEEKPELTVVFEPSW

As usually defined, the pIC50 is the IC50 on a negative log10 scale, so that one unit is a factor of ten. `C[C@@H](CC(=O)O)[C@H](NC(=O)CN1C(=O)C(C)(C)c2c1ccc(C1CC1)c2F)C1CC1` (single isomer, unassigned) [Compound 60A*]: the pIC50 in experiment [1] was greater than 6.52; in experiment [2] it was 6.00 to 6.30; in experiment [3] (setting [4]), greater than 6.52.

In the case of `CC1(C)C(=O)N(CC(=O)NCCCc2nnn[nH]2)c2ccc(Br)cc21` [Compound 1, N-(3-(1H-tetrazol-5-yl)propyl)-2-(5-bromo-3,3-dimethyl-2-oxoindolin-1-yl)acetamide], the pIC50 is greater than 6.52 in experiment [1], less than 6.00 in experiment [2] and greater than 6.52 in experiment [3] (setting [4]).

With `CC1(C)C(=O)N(CC(=O)NCCCC(=O)O)c2ccc(Br)cc21` [Compound 2, 4-(2-(5-bromo-3,3-dimethyl-2-oxoindolin-1-yl)acetamido)butanoic acid], the pIC50 in experiment [1] was greater than 6.52; in experiment [2], less than 6.00; in experiment [3] (setting [4]), greater than 6.52; in experiment [3] (setting [5]), 6.82.

For `CC1(C)C(=O)N(CC(=O)NCCCC(=O)O)c2c(O)cc(Br)cc21` [Compound 16, 4-(2-(5-bromo-7-hydroxy-3,3-dimethyl-2-oxoindolin-1-yl)acetamido)butanoic acid], the pIC50 was 6.00 to 6.30 in experiment [1], 6.00 to 6.30 in experiment [2] and greater than 6.52 in experiment [3] (setting [4]).

On to `CC1(C)C(=O)N(CC(=O)NCCCC(=O)O)c2ccc(C3CC3)c(F)c21` [Compound 56, 4-(2-(5-cyclopropyl-4-fluoro-3,3-dimethyl-2-oxoindolin-1-yl)acetamido)butanoic acid], for which the negative-log IC50 (pIC50) in experiment [1] was greater than 6.52; in experiment [2], 6.00 to 6.30; in experiment [3] (setting [4]), greater than 6.52; in experiment [3] (setting [5]), 7.34.

Consider `CC1(C)C(=O)N(CC(=O)NCCCC(=O)O)c2c(F)cc(C3CC3)c(F)c21` [Compound 57, 4-(2-(5-cyclopropyl-4,7-difluoro-3,3-dimethyl-2-oxoindolin-1-yl)acetamido)butanoic acid], for which the pIC50 is greater than 6.52 in experiment [1], 6.30 to 6.52 in experiment [2], greater than 6.52 in experiment [3] (setting [4]) and 7.23 in experiment [3] (setting [5]).

In the case of `C[C@@H](CCC(=O)O)NC(=O)CN1C(=O)C(C)(C)c2c(F)c(C3CC3)cc(F)c21` [Compound 59A, (S)-4-(2-(5-cyclopropyl-4,7-difluoro-3,3-dimethyl-2-oxoindolin-1-yl)acetamido)pentanoic acid], the pIC50 is greater than 6.52 in experiment [1], 6.30 to 6.52 in experiment [2] and greater than 6.52 in experiment [3] (setting [4]).

On to `C[C@@H](CNC(=O)CN1C(=O)C(C)(C)c2c(F)c(C3CC3)cc(F)c21)CC(=O)O` [Compound 61A, (R)-4-(2-(5-cyclopropyl-4,7-difluoro-3,3-dimethyl-2-oxoindolin-1-yl)acetamido)-3-methylbutanoic acid], for which the pIC50 in experiment [1] was greater than 6.52; in experiment [2], 6.30 to 6.52.

As for `CC1(C)C(=O)N(CC(=O)NC[C@H](F)CC(=O)O)c2c(F)cc(C3CC3)c(F)c21` [Compound 62A, (R)-4-(2-(5-cyclopropyl-4,7-difluoro-3,3-dimethyl-2-oxoindolin-1-yl)acetamido)-3-fluorobutanoic acid], the pIC50 was greater than 6.52 in experiment [1] and 6.30 to 6.52 in experiment [2].

For the compound `CC1(C)C(=O)N(CC(=O)NC[C@H](F)CC(=O)O)c2ccc(C3CC3)c(F)c21` [Compound 63A, (R)-4-(2-(5-cyclopropyl-4-fluoro-3,3-dimethyl-2-oxoindolin-1-yl)acetamido)-3-fluorobutanoic acid], the pIC50 is greater than 6.52 in experiment [1], 6.00 to 6.30 in experiment [2] and greater than 6.52 in experiment [3] (setting [4]).

As for `CC1(C)C(=O)N(CC(=O)NC[C@H](F)CC(=O)O)c2c(F)cc(C(F)(F)F)c(F)c21` [Compound 64A, (R)-4-(2-(4,7-difluoro-3,3-dimethyl-2-oxo-5-(trifluoromethyl)indolin-1-yl)acetamido)-3-fluorobutanoic acid], the pIC50 in experiment [1] is greater than 6.52; in experiment [2], 6.00 to 6.30; in experiment [3] (setting [4]), greater than 6.52.

Regarding `CC1(C)C(=O)N(CC(=O)NCCCc2nnn[nH]2)c2c(F)cc(C3CC3)c(F)c21` [Compound 65, N-(3-(1H-tetrazol-5-yl)propyl)-2-(5-cyclopropyl-4,7-difluoro-3,3-dimethyl-2-oxoindolin-1-yl)acetamide], the pIC50 in experiment [1] is greater than 6.52; in experiment [2], 6.00 to 6.30; in experiment [3] (setting [4]), greater than 6.52; in experiment [3] (setting [5]) it was 7.82.

Consider `CC1(C)C(=O)N(CC(=O)NCCCC(=O)O)c2c(F)cc(C3CC3)cc21` [Compound 66, 4-(2-(5-cyclopropyl-7-fluoro-3,3-dimethyl-2-oxoindolin-1-yl)acetamido)butanoic acid], for which the negative-log IC50 (pIC50) in experiment [1] is greater than 6.52; in experiment [2], greater than 6.52; in experiment [3] (setting [4]), greater than 6.52; in experiment [3] (setting [5]) it was 7.62.
